“Also recorded” adds a separate entry of the source.
What was measured:
[1] = test system: SARS-CoV-2 Delta variant (B.1.617.2); assay: Virucidal assay against SARS-CoV-2; format: cell-based; details: for virucidal activity against SARS-CoV-2: in words
[2] = test system: SARS-CoV-2 Delta variant (B.1.617.2); format: cell-based

| Compound | virucidal activity against SARS-CoV-2 [1] | antiviral activity toward SARS-CoV-2 [2] | also measured |
| --- | --- | --- | --- |
| C[C@H](CCC(=O)[O-])[C@H]1CC[C@H]2[C@@H]3CC[C@@H]4C[C@H](O)CC[C@]4(C)[C@H]3CC[C@]12C.C[N+](C)(C)CCO [[LCA][Z] (4)] | – | – | virucidal activity, times lower than the free acid LCA (1) ([1]; ratio of EC50 values): 3.27 times |
| C[C@H](CCC(=O)O)[C@H]1CC[C@H]2[C@@H]3[C@@H](O)C[C@@H]4C[C@H](O)CC[C@]4(C)[C@H]3CC[C@]12C [UDCA (9), ursodeoxycholic acid] | did not exhibit antiviral or virucidal activity | did not exhibit antiviral activity; also recorded: did not exhibit antiviral or virucidal activity | virucidal activity against SARS-CoV-2 [1]; 9: did not show activity |
| C[C@H](CCC(=O)O)[C@H]1CC[C@H]2[C@@H]3CC[C@@H]4C[C@H](O)CC[C@]4(C)[C@H]3CC[C@]12C [LCA (1), lithocholic acid] | – | did not exhibit antiviral activity | SI (selectivity index) ([1]; SI = CC50/EC50, virucidal assay): >5.16 |
| C[C@H](CCC(=O)O)[C@H]1CC[C@H]2[C@@H]3CC[C@@H]4C[C@H](O)CC[C@]4(C)[C@H]3C[C@H](O)[C@]12C [DCA (5), deoxycholic acid] | did not exhibit antiviral or virucidal activity | did not exhibit antiviral activity; also recorded: did not exhibit antiviral or virucidal activity | virucidal activity against SARS-CoV-2 ([1]; listed as DCA, 5): did not show activity |
| C[C@H](CCC(=O)O)[C@H]1CC[C@H]2[C@@H]3[C@H](O)C[C@@H]4C[C@H](O)CC[C@]4(C)[C@H]3CC[C@]12C [CDCA (13), chenodeoxycholic acid] | did not exhibit antiviral or virucidal activity | did not exhibit antiviral activity; also recorded: did not exhibit antiviral or virucidal activity | virucidal activity against SARS-CoV-2 [1]; 13: did not show activity |
